In PubChem BioAssay (NCI):
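Growth conditions: 96-well plates. Treatment: test compound, 48 hours, 5 concentrations. Analysis: linear interpolation between bracketing concentrations; unreached endpoints set to highest concentration. GI50 = concentration required for 50% inhibition of growth. TGI denotes the concentration required for complete inhibition of growth.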

Experiments:
Assay in all cases: NCI-60 cell line screen, 48 h
786-0 renal = system: 786-0 renal
A498 renal = system: A498 renal
A549 NSCLC = system: A549 NSCLC
ACHN renal = system: ACHN renal
BT-549 breast = system: BT-549 breast
CAKI-1 renal = system: CAKI-1 renal
CCRF-CEM leukemia = system: CCRF-CEM leukemia
COLO 205 colon = system: COLO 205 colon
DU-145 prostate = system: DU-145 prostate
EKVX NSCLC = system: EKVX NSCLC
HCC-2998 colon = system: HCC-2998 colon
HCT-116 colon = system: HCT-116 colon
HCT-15 colon = system: HCT-15 colon
HL-60(TB) leukemia = system: HL-60(TB) leukemia
HOP-62 NSCLC = system: HOP-62 NSCLC
HOP-92 NSCLC = system: HOP-92 NSCLC
HS 578T breast = system: HS 578T breast
HT29 colon = system: HT29 colon
IGROV1 ovarian = system: IGROV1 ovarian
K-562 leukemia = system: K-562 leukemia
KM12 colon = system: KM12 colon
LOX IMVI melanoma = system: LOX IMVI melanoma
M14 melanoma = system: M14 melanoma
MCF7 breast = system: MCF7 breast
MDA-MB-231 breast = system: MDA-MB-231 breast
MDA-MB-435 = system: MDA-MB-435
MOLT-4 leukemia = system: MOLT-4 leukemia
NCI-H226 lung = system: NCI-H226 lung
NCI-H23 lung = system: NCI-H23 lung

Question: With O=S(=O)(Nc1ccc(Cl)cc1Cl)c1ccc(-c2cnc(C3CC3)o2)cc1 as the compound, how does the GI50 (786-0 renal) read?
Answer: 615 nM

Question: And the TGI (786-0 renal)?
Answer: > 86500 nM

Question: And the GI50 (A498 renal)?
Answer: 197 nM

Question: What about the TGI (A498 renal) of the same compound?
Answer: 875 nM

Question: And the GI50 (A549 NSCLC)?
Answer: 1020 nM

Question: What about the TGI (A549 NSCLC) of the same compound?
Answer: > 100000 nM

Question: And the GI50 (ACHN renal)?
Answer: 639 nM

Question: What about the TGI (ACHN renal) of the same compound?
Answer: 21500 nM

Question: What about the GI50 (BT-549 breast) of the same compound?
Answer: 663 nM

Question: And the TGI (BT-549 breast)?
Answer: 36300 nM

Question: And the GI50 (CAKI-1 renal)?
Answer: 505 nM

Question: And the TGI (CAKI-1 renal)?
Answer: 55900 nM

Question: And the GI50 (CCRF-CEM leukemia)?
Answer: 509 nM

Question: What about the TGI (CCRF-CEM leukemia) of the same compound?
Answer: > 100000 nM

Question: What about the GI50 (COLO 205 colon) of the same compound?
Answer: 1130 nM

Question: What about the TGI (COLO 205 colon) of the same compound?
Answer: 11100 nM

Question: What about the GI50 (DU-145 prostate) of the same compound?
Answer: 2600 nM

Question: What about the TGI (DU-145 prostate) of the same compound?
Answer: > 100000 nM

Question: What about the GI50 (EKVX NSCLC) of the same compound?
Answer: 2560 nM

Question: And the TGI (EKVX NSCLC)?
Answer: 88600 nM

Question: And the GI50 (HCC-2998 colon)?
Answer: 1600 nM

Question: And the TGI (HCC-2998 colon)?
Answer: 16500 nM

Question: What about the GI50 (HCT-116 colon) of the same compound?
Answer: 431 nM

Question: What about the TGI (HCT-116 colon) of the same compound?
Answer: > 65400 nM

Question: And the GI50 (HCT-15 colon)?
Answer: 445 nM

Question: And the TGI (HCT-15 colon)?
Answer: 40400 nM

Question: What about the GI50 (HL-60(TB) leukemia) of the same compound?
Answer: 351 nM

Question: What about the TGI (HL-60(TB) leukemia) of the same compound?
Answer: 9410 nM

Question: And the GI50 (HOP-62 NSCLC)?
Answer: 909 nM

Question: And the TGI (HOP-62 NSCLC)?
Answer: 55400 nM

Question: What about the GI50 (HOP-92 NSCLC) of the same compound?
Answer: 491 nM

Question: What about the TGI (HOP-92 NSCLC) of the same compound?
Answer: 15300 nM

Question: What about the GI50 (HS 578T breast) of the same compound?
Answer: 365 nM

Question: What about the TGI (HS 578T breast) of the same compound?
Answer: 48500 nM

Question: And the GI50 (HT29 colon)?
Answer: 410 nM

Question: And the TGI (HT29 colon)?
Answer: 30600 nM

Question: What about the GI50 (IGROV1 ovarian) of the same compound?
Answer: 647 nM

Question: And the TGI (IGROV1 ovarian)?
Answer: > 73300 nM

Question: What about the GI50 (K-562 leukemia) of the same compound?
Answer: 382 nM

Question: What about the TGI (K-562 leukemia) of the same compound?
Answer: > 100000 nM

Question: And the GI50 (KM12 colon)?
Answer: 485 nM

Question: What about the TGI (KM12 colon) of the same compound?
Answer: 25900 nM

Question: What about the GI50 (LOX IMVI melanoma) of the same compound?
Answer: 542 nM

Question: And the TGI (LOX IMVI melanoma)?
Answer: 34000 nM

Question: And the GI50 (M14 melanoma)?
Answer: 473 nM

Question: What about the TGI (M14 melanoma) of the same compound?
Answer: > 88200 nM

Question: And the GI50 (MCF7 breast)?
Answer: 350 nM

Question: And the TGI (MCF7 breast)?
Answer: 41200 nM

Question: And the GI50 (MDA-MB-231 breast)?
Answer: 2080 nM

Question: What about the TGI (MDA-MB-231 breast) of the same compound?
Answer: 28400 nM

Question: What about the GI50 (MDA-MB-435) of the same compound?
Answer: 182 nM

Question: And the TGI (MDA-MB-435)?
Answer: 727 nM

Question: And the GI50 (MOLT-4 leukemia)?
Answer: 692 nM

Question: And the TGI (MOLT-4 leukemia)?
Answer: > 100000 nM

Question: And the GI50 (NCI-H226 lung)?
Answer: 1370 nM

Question: What about the TGI (NCI-H226 lung) of the same compound?
Answer: 31100 nM

Question: And the GI50 (NCI-H23 lung)?
Answer: 1400 nM
